In article PMC10883997, “Multiparametric in vitro and in vivo analysis of the safety profile of self-assembling peptides” (Scientific Reports, 2024):
The star is where a group is joined. Biotin = O=C1N[C@H]2[C@H](CS[C@H]2CCCCC(=O)*)N1

What was measured:
[1] = test system: TK6 human lymphoblastoid cell line; test: Thymidine kinase gene mutation assay (TK GMA); format: cell-based; conditions: TK6 cells, 4 h exposure, negative control 5.4 × 10^–6
Experimental: (§1) The general guidance from OECD TG 487 and 490 were followed[26],[41]. TK6 cell suspensions were treated with serially diluted SAPs molecules at 37 °C for 4 h, washed and resuspended in fresh medium, and cultured in new flasks for the MN and TK assays. We conducted the MN test and the TK mutation assay 48 h and 72 h later, respectively.
To measure genotoxicity, cells were subcultured at a maximum density of 2.5 × 10^5 cells/mL (at most 20 × 0^6 cells) for 3 additional days to allow phenotypic expression of the TK gene prior to mutant selection. Forty-eight hours after treatment, the cells were prepared for the MN assay. […] At least 2000 intact cells for each treatment were examined, and the cells containing MN were scored. Cells containing one or more micronuclei were recorded as micronucleated cells. […] The MN frequencies between non-treated and treated cells and the concentration–response relationship were statistically analyzed. […]
The cultures were maintained for another 24 h to allow phenotypic expression prior to plating for TK assay to determine the mutant fractions. […] Mutation frequencies (MFs) were finally calculated from cells grown in TFT selection medium or non-selection medium (for 7 days) via the Poisson distribution method. […] Changes in MFs relative to the negative controls (fold-change) were calculated and expressed graphically.

[2] = test system: TK6 human lymphoblastoid cell line; test: In vitro micronucleus (MN) assay; format: cell-based; conditions: 4 h exposure, scored 48 h after exposure, 2000 cells per culture, three independent experiments
Experimental: as §1
To measure genotoxicity, cells were subcultured at a maximum density of 2.5 × 10^5 cells/mL (at most 20 × 0^6 cells) for 3 additional days to allow phenotypic expression of the TK gene prior to mutant selection. Forty-eight hours after treatment, the cells were prepared for the MN assay. Briefly, a small portion of cell culture from the flask was transferred to a 15 mL tube and centrifuged at 1200 rpm for 5 min at RT. The supernatant was then removed, and the pelleted cells were resuspended in PBS and placed in a cytospin funnel where cells were cytospun for 4 min at 900 rpm on microscope coverslips. A Diff-Quik staining was performed for microscope scoring. At least 2000 intact cells for each treatment were examined, and the cells containing MN were scored. Cells containing one or more micronuclei were recorded as micronucleated cells. […] The MN frequencies between non-treated and treated cells and the concentration–response relationship were statistically analyzed. […]

[3] = test system: female Sprague–Dawley rats; test: In vivo acute systemic toxicity of SAPs, subcutaneous injection; set-up: species or system Rattus norvegicus; conditions: for Body weights at the beginning of the experiment (means) / Body weight at the end of the experiment (means): single s.c. injection 10 mL/kg, mean ± SD, n = 5; for Body weights at the beginning of the experiment (means): day 0; for Body weight at the end of the experiment (means): day 5
Experimental: The general guidance from the ISO10993 to Biological evaluation of medical devices was followed. Animals were housed in plastic cages with free access to drinking water and a pelleted basal diet under controlled conditions of temperature (22 °C ± 3 °C), humidity (50 ± 10%) and light (12/12 h light/dark cycle). Rats were quarantined for the first 7 days and randomly divided into experimental and control groups. All animals were bred and maintained at CIBA (Biomedical Research Center of Aragon; Department of Experimental Surgery). Animal experimentation was approved by the Ethics Committee for Animal Experimentation from the University of Zaragoza (protocol number PI31/22), and all authors complied with the ARRIVE guidelines.SAPs or electrospun mats, empty micro-channels, and HS-filled micro-channels were subcutaneously administered to female Sprague–Dawley rats (Rattus norvegicus) 7 weeks old, non-pregnant, and nulliparous. The concentration of each SAP was: HS: 1%, 68: 3%, 46: 5%, C1: 3%, 65L: 3% and B42: 1%. On the day before administration, the animals were weighed, and the hair of their thoracic back was shaved. On day 1, the different SAPs were administered in one single dose by subcutaneous injection to each rat corresponding to each group. To devices, a skin incision of about 1 cm and subcutaneous dissection were performed under sterile conditions. Then, the products provided were introduced into the subcutaneous space, one piece per animal. Animals were weighed. Animals were euthanized by trained personnel using medical-grade Carbon dioxide (CO2). CO2 inhalation is the most common method of euthanasia used for small animals (i.e., mice, rats, guinea pigs, and hamsters). It is considered an acceptable euthanasia agent for small animals when properly administered. It was accepted by the Ethics Committee for Animal Experimentation from the University of Zaragoza (protocol number PI31/22). For histological assessment, lung, liver, spleen, kidneys, and duodenum were removed from rats, fixed with 4% paraformaldehyde, and embedded in paraffin. Sections from these samples were stained with hematoxylin and eosin (H&E). Blood samples were drawn at the end of the study by cardiac puncture. They were analysed with VetScan V2.
Data are expressed by mean ± standard deviation of the mean. Body weight comparison between groups was assessed using the repeated measures two-way ANOVA test. Bonferroni posthoc multiple comparisons were also used. Analysis of biochemical parameters was made with one-way ANOVA. They were performed using GraphPad Prism 8 (8.0.2).

[4] = test system: Mouse Embryonic Fibroblasts (MEFs); test: Scratch wound (wound healing) assay, fibroblasts; format: cell-based; conditions: MEF fibroblasts, 0.01 mg/mL, IncuCyte scan every 4 h; three independent experiments
Experimental: Prior to initiating the assay, cells were grown to confluence in a 96-well plate at 37 °C in an atmosphere of 5% CO2 and, with the help of a 96-pin IncuCyte® Wound Maker simultaneously created precise and reproducible wounds in all wells of a 96-well plate by gently removing the cells from the confluent monolayer. After wounding, immediately aspirate the media from each well and wash the cells twice with culture media (100 µL/well). After washing, 100 µL of media containing 0.01 mg/mL of the appropriate agent was added to the corresponding well, and the plate was placed inside the IncuCyte. Assay plates were then equilibrated within the IncuCyte® for a minimum of 15 min before the first scan. The software was set to scan the plate every 4 h for migration assays.

[5] = rat blood at day 5, VetScan V2, one-way ANOVA, within expected reference values

Row | Compound | mutant frequency (MF) ([1]; Mit C 8.3 µg/mL (positive control)) | mutant frequency (MF) ([1]; Mit C 25 µg/mL (positive control)) | percentage of micronucleated cells versus negative control [2] | Sodium blood test (NA+) compared with the control group [3, 5] | albumin (ALB) levels compared with the control group ([3]; rat blood, cardiac puncture at day 5, VetScan V2, one-way ANOVA, all group means incl. control slightly above reference) | body weight evolution versus control group ([3]; rats, s.c. 10 mL/kg, days 0, 2, 5, two-way ANOVA, p = 0.03, no significant change at single time points) | Body weights at the beginning of the experiment (means) ([3]; rats) | Body weight at the end of the experiment (means) ([3]; rats) | globulin blood tests (GLOB) compared with the control group [3, 5] | cell migration versus control (area under relative wound density % vs time curve) [4]
1 | CO[C@@]12[C@H](COC(N)=O)C3=C(C(=O)C(C)=C(N)C3=O)N1C[C@@H]1N[C@@H]12 [Mit C, Mitomycin C] | 14.6 × 10^–6 | 175.3 × 10^–6 | significant increase | – | – | – | – | – | – | –
2 | Ac-FAQRVPPGGG(LDLD)3-CONH2 [compound 68] | – | – | – | increased | Significant higher | significantly different | 238.1 ± 8.05 g | 247.9 ± 7.60 g | – | –
3 | Biotin-GGGAFASAKA-NH2 [B42] | – | – | – | – | – | – | 243.8 ± 9.10 g | 260.8 ± 10.9 g | – | –
4 | FAQRVPPGGG(LDLK)3-CONH2 [compound 46] | – | – | – | – | – | – | 250.5 ± 9.10 g | 265.2 ± 8.20 g | increased | reduced cell migration
